Assays:
[1] = tested on: UACC-62; test: NCI single dose screen, UACC-62; format: cell-based; settings: Homo sapiens; UACC-62, melanoma; single dose 10^−5 M; read-out: growth inhibition percentage
Protocol: (§1) Screening of the anticancer activity of the newly synthesised compounds (6a, 6c, 6d, 6e, 6j, 6l, 6m, 6n, 6o, and 6p) was performed by the US National Cancer Institute (NCI) using 60 different human tumour cell lines in accordance with standard procedures formerly reported.
(§2) In vitro anticancer screening was carried out for the selected compounds at a single dose (10^−5 M) against 60 different human tumour cell lines of nine different cancer cell types: leukaemia, lung, colon, CNS, melanoma, ovarian, renal, prostate, and breast cancers.

[2] = tested on: HOP-92; test: NCI single dose screen, HOP-92; format: cell-based; settings: Homo sapiens; HOP-92, non-small cell lung cancer; single dose 10^−5 M; read-out: growth inhibition percentage
Protocol: as §1, §2

[3] = target: T1, soybean 15-LOX (Glycine max, UniProt P08170); test: 15-LOX inhibitor screening assay (Cayman); format: biochemical; settings: mean ± SEM, n = 3 replicates
T1 sequence (P08170 1-839): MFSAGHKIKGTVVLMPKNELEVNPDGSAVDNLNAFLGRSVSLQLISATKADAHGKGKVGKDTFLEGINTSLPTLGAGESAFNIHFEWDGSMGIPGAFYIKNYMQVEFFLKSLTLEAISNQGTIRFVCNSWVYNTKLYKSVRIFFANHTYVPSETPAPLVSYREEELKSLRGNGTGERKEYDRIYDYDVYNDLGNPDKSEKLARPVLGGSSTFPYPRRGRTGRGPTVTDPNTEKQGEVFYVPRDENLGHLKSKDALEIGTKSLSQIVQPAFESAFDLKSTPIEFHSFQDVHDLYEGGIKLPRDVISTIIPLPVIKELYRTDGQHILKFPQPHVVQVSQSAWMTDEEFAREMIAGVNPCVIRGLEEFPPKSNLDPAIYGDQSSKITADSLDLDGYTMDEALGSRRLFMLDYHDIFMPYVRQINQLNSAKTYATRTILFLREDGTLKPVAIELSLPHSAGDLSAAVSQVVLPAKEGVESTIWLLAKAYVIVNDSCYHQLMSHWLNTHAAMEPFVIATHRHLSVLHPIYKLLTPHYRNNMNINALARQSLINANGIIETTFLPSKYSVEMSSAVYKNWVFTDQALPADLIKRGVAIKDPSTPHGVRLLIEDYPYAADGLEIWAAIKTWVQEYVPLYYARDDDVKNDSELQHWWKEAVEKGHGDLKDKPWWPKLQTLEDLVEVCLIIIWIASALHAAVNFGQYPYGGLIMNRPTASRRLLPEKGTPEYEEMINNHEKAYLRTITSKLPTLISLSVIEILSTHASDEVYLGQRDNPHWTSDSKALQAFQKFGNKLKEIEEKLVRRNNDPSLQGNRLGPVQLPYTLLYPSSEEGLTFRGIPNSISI

[4] = tested on: TK-10; test: NCI single dose screen, TK-10; format: cell-based; settings: Homo sapiens; TK-10, renal cancer; single dose 10^−5 M; read-out: growth inhibition percentage
Protocol: as §1, §2

[5] = tested on: MDA-MB-231/ATCC; test: NCI single dose screen, MDA-MB-231/ATCC; format: cell-based; settings: Homo sapiens, breast cancer, single dose 10^−5 M, read-out: growth inhibition percentage
Protocol: as §1, §2

[6] = tested on: NCI-H226; test: NCI single dose screen, NCI-H226; format: cell-based; settings: Homo sapiens; NCI-H226, non-small cell lung cancer; single dose 10^−5 M; read-out: growth inhibition percentage
Protocol: as §1, §2

[7] = tested on: DU-145; test: NCI single dose screen, DU-145; format: cell-based; settings: Homo sapiens; DU-145, prostate cancer; single dose 10^−5 M; read-out: growth inhibition percentage
Protocol: as §1, §2

[8] = tested on: OVCAR-8; test: NCI single dose screen, OVCAR-8; format: cell-based; settings: Homo sapiens; OVCAR-8, ovarian cancer; single dose 10^−5 M; read-out: growth inhibition percentage
Protocol: as §1, §2

[9] = tested on: HS 578T; test: NCI single dose screen, HS 578T; format: cell-based; settings: Homo sapiens, breast cancer, single dose 10^−5 M, read-out: growth inhibition percentage
Protocol: as §1, §2

[10] = tested on: A549/ATCC; test: NCI single dose screen, A549/ATCC; format: cell-based; settings: Homo sapiens, non-small cell lung cancer, single dose 10^−5 M, read-out: growth inhibition percentage
Protocol: as §1, §2

[11] = tested on: NCI/ADR-RES; test: NCI single dose screen, NCI/ADR-RES; format: cell-based; settings: Homo sapiens, ovarian cancer, single dose 10^−5 M, read-out: growth inhibition percentage
Protocol: as §1, §2

[12] = tested on: SF-539; test: NCI single dose screen, SF-539; format: cell-based; settings: Homo sapiens, read-out: growth inhibition percentage
Protocol: as §1, §2

[13] = tested on: 786-0; test: NCI single dose screen, 786-0; format: cell-based; settings: Homo sapiens; 786-0, renal cancer; single dose 10^−5 M; read-out: growth inhibition percentage
Protocol: as §1, §2

[14] = tested on: SR; test: NCI single dose screen, SR; format: cell-based; settings: Homo sapiens, leukaemia, single dose 10^−5 M, read-out: growth inhibition percentage
Protocol: as §1, §2

[15] = target: T2, human recombinant COX-2 (Homo sapiens, UniProt P35354); test: In vitro COX-2 inhibition assay kit (Cayman); format: biochemical; settings: for COX-2 SI: Selectivity index = COX-1 IC50/COX-2 IC50; for IC50: human recombinant COX-2, mean ± SEM, n = 3 replicates
T2 sequence (P35354 18-604): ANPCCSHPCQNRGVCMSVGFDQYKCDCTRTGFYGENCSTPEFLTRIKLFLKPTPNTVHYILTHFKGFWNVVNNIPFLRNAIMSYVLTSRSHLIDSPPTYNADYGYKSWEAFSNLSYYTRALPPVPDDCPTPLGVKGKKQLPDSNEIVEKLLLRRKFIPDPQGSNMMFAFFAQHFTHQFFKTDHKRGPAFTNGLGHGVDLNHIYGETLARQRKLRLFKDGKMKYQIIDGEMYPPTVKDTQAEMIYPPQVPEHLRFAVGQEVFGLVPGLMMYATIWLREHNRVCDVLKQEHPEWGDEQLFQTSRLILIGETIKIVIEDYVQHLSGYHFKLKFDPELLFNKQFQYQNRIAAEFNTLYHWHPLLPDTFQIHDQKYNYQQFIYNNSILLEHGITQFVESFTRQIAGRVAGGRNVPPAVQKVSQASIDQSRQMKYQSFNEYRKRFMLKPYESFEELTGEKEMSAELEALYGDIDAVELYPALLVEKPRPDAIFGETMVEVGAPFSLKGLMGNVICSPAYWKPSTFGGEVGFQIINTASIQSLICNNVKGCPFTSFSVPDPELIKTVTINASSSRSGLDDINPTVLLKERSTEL
Protocol: The half-maximal inhibitory concentration (IC50, μM) was determined, and the COX-2 selectivity index (SI) was calculated as IC50 (COX-1)/IC50 (COX-2).

[16] = tested on: OVCAR-4; test: NCI single dose screen, OVCAR-4; format: cell-based; settings: Homo sapiens; OVCAR-4, ovarian cancer; single dose 10^−5 M; read-out: growth inhibition percentage
Protocol: as §1, §2

[17] = tested on: T-47D; test: NCI single dose screen, T-47D; format: cell-based; settings: Homo sapiens, T47D, breast cancer, single dose 10^−5 M, read-out: growth inhibition percentage
Protocol: as §1, §2

[18] = tested on: CCRF-CEM; test: NCI single dose screen, CCRF-CEM; format: cell-based; settings: Homo sapiens, leukaemia, single dose 10^−5 M, read-out: growth inhibition percentage
Protocol: as §1, §2

CN1c2ccccc2C(=O)N(NC(=O)Nc2ccc(F)cc2)C1c1ccc(F)cc1 (centres unmarked) [Compound 6n, 1-(4-Fluorophenyl)-3-(2–(4-fluorophenyl)-1-methyl-4-oxo-1,4-dihydroquinazolin-3(2H)-yl)urea]
inhibition at 10 µM [1]: 38.1%
inhibition at 10 µM [2]: < 10%
IC50 [3]: 2000 ± 260 nM
inhibition at 10 µM [4]: < 10%
inhibition at 10 µM [5]: 29.8%
inhibition at 10 µM [6]: 21%
inhibition at 10 µM [7]: < 10%
inhibition at 10 µM [8]: < 10%
inhibition at 10 µM [9]: 19.7%
inhibition at 10 µM [10]: < 10%
inhibition at 10 µM [11]: 23.2%
inhibition at 10 µM [12]: 10.1%
inhibition at 10 µM [13]: < 10%
inhibition at 10 µM [14]: 14.4%
COX-2 SI [15]: 16.12
IC50 [15]: 650 ± 1300 nM
inhibition at 10 µM [16]: 29.7%
inhibition at 10 µM [17]: 11.7%
inhibition at 10 µM [18]: < 10%

CN1c2ccccc2C(=O)N(NC(=O)Nc2ccc(F)cc2)C1c1ccc([N+](=O)[O-])cc1 (centres unmarked) [Compound 6o, 1-(4-Fluorophenyl)-3–(1-methyl-2-(4-nitrophenyl)-4-oxo-1,4-dihydroquinazolin-3(2H)-yl)urea]
inhibition at 10 µM [1]: 27.4%
inhibition at 10 µM [2]: < 10%
IC50 [3]: 1420 ± 230 nM
inhibition at 10 µM [4]: < 10%
inhibition at 10 µM [5]: 22.5%
inhibition at 10 µM [6]: < 10%
inhibition at 10 µM [7]: < 10%
inhibition at 10 µM [8]: < 10%
inhibition at 10 µM [9]: < 10%
inhibition at 10 µM [10]: < 10%
inhibition at 10 µM [11]: < 10%
inhibition at 10 µM [12]: < 10%
inhibition at 10 µM [13]: < 10%
inhibition at 10 µM [14]: 12.2%
IC50 [15]: 10100 ± 1010 nM
inhibition at 10 µM [16]: 16.4%
inhibition at 10 µM [17]: < 10%
inhibition at 10 µM [18]: < 10%

COc1ccc(C2N(NC(=O)Nc3ccc(F)cc3)C(=O)c3ccccc3N2C)cc1 (centres unmarked) [Compound 6p, 1-(4-Fluorophenyl)-3-(2–(4-methoxyphenyl)-1-methyl-4-oxo-1,4-dihydroquinazolin-3(2H)-yl)urea]
inhibition at 10 µM [1]: < 10%
inhibition at 10 µM [2]: < 10%
IC50 [3]: 3870 ± 2100 nM
inhibition at 10 µM [4]: < 10%
inhibition at 10 µM [5]: 12.6%
inhibition at 10 µM [6]: < 10%
inhibition at 10 µM [7]: < 10%
inhibition at 10 µM [8]: < 10%
inhibition at 10 µM [9]: < 10%
inhibition at 10 µM [10]: < 10%
inhibition at 10 µM [11]: < 10%
inhibition at 10 µM [12]: < 10%
inhibition at 10 µM [13]: < 10%
inhibition at 10 µM [14]: < 10%
COX-2 SI [15]: 9.54
IC50 [15]: 9280 ± 1040 nM
inhibition at 10 µM [16]: < 10%
inhibition at 10 µM [17]: < 10%
inhibition at 10 µM [18]: < 10%
